≈ marks a conversion by molar mass, not a printed value.
Key:
Type in all cases: functional
[1] = Antibacterial activity against Streptomyces sp. WAC4713 measured up to 55 hrs; conditions: Streptomyces sp. WAC4713, 55 h; time hrs <=55
[2] = tested on: Bacillus subtilis; assay: Antibacterial activity against Bacillus subtilis PY79 incubated for 18 hrs in presence of 73.6 mg/L Ca2+ by visual method
[3] = tested on: Bacillus subtilis; assay: Antibacterial activity against Bacillus subtilis ATCC1046 in presence of 1.25 mM Ca2+ by serial dilution method; conditions: time 18 hrs
[4] = tested on: Staphylococcus aureus; assay: Antibacterial activity against Staphylococcus aureus ATCC 29213 incubated for 12 hrs in presence of 1.25 mM Ca2+ by broth microdilution method

| MIC90 [2] [µg/mL] | Compound | further results |
| --- | --- | --- |
| 2 | CCCCCCCCCC(=O)N[C@@H](Cc1c[nH]c2ccccc12)C(=O)N[C@H](CC(N)=O)C(=O)N[C@@H](CC(=O)O)C(=O)N[C@@H]1C(=O)NCC(=O)N[C@@H](CCCN)C(=O)N[C@@H](CC(=O)O)C(=O)N[C@H](C)C(=O)N[C@@H](CC(=O)O)C(=O)NCC(=O)N[C@H](CO)C(=O)N[C@@H]([C@H](C)CC(=O)O)C(=O)N[C@@H](CC(=O)c2ccccc2N)C(=O)O[C@@H]1C | MIC [1]: 512 µg/mL (≈ 316 µM) |
|  | CCCCCCCCCC(=O)N[C@@H](Cc1c[nH]c2ccccc12)C(=O)N[C@H](CC(N)=O)C(=O)N[C@@H](CC(N)=O)C(=O)N[C@@H]1C(=O)NCC(=O)N[C@@H](CCCCN)C(=O)N[C@@H](CC(=O)O)C(=O)N[C@H](C)C(=O)N[C@@H](CC(=O)O)C(=O)NCC(=O)N[C@H](CO)C(=O)N[C@@H](CCC(=O)O)C(=O)N[C@@H](Cc2c[nH]c3ccccc23)C(=O)O[C@@H]1C | MIC [3]: 1.5 µg/mL |
| 20 | CCCCCCCCCC(=O)N[C@@H](Cc1c[nH]c2ccccc12)C(=O)N[C@H](CC(=O)O)C(=O)N[C@@H](CC(N)=O)C(=O)N[C@@H]1C(=O)N(C)CC(=O)N[C@@H](CCCN)C(=O)N[C@@H](CC(=O)O)C(=O)N[C@H](C)C(=O)N[C@@H](CC(=O)O)C(=O)NCC(=O)N[C@H](CO)C(=O)N[C@@H](CCC(=O)O)C(=O)N[C@@H](CC(=O)c2ccccc2N)C(=O)O[C@@H]1C |  |
| 25 | CCCCCCCCCC(=O)N[C@@H](Cc1c[nH]c2ccccc12)C(=O)N[C@H](CCC(=O)O)C(=O)N[C@@H](CC(N)=O)C(=O)N[C@@H]1C(=O)N(C)CC(=O)N[C@@H](C)C(=O)N[C@@H](CC(=O)O)C(=O)N[C@H](CCCCN)C(=O)N[C@@H](CC(=O)O)C(=O)NCC(=O)N[C@H](CC(N)=O)C(=O)N[C@@H](CCC(=O)O)C(=O)N[C@@H]([C@@H](C)CC)C(=O)O[C@@H]1C |  |
| 25 | CCCCCCCCCC(=O)N[C@@H](Cc1c[nH]c2ccccc12)C(=O)N[C@H](CCC(=O)O)C(=O)N[C@@H](CC(N)=O)C(=O)N[C@H]1COC(=O)[C@H]([C@@H](C)CC)NC(=O)[C@H](CCC(=O)O)NC(=O)[C@@H](CC(N)=O)NC(=O)CNC(=O)[C@H](CC(=O)O)NC(=O)[C@@H](CCCCN)NC(=O)[C@H](CC(=O)O)NC(=O)[C@H](C)NC(=O)CN(C)C1=O |  |
| 20 | CCCCCCCCCC(=O)N[C@@H](Cc1c[nH]c2ccccc12)C(=O)N[C@H](CC(=O)O)C(=O)N[C@@H](CC(N)=O)C(=O)N[C@@H]1C(=O)N(C)CC(=O)N[C@@H](C)C(=O)N[C@@H](CC(=O)O)C(=O)N[C@H](C)C(=O)N[C@@H](CC(=O)O)C(=O)NCC(=O)N[C@H](CO)C(=O)N[C@@H](CCC(=O)O)C(=O)N[C@@H](CC(=O)c2ccccc2N)C(=O)O[C@@H]1C |  |
|  | CCCCCCCCCC(=O)N[C@@H](Cc1c[nH]c2ccccc12)C(=O)N[C@H](CC(N)=O)C(=O)N[C@@H](CC(=O)O)C(=O)N[C@@H]1C(=O)NCC(=O)N[C@@H](CCCCN)C(=O)N[C@@H](CC(=O)O)C(=O)N[C@H](C)C(=O)N[C@@H](CC(=O)O)C(=O)NCC(=O)N[C@H](CO)C(=O)N[C@@H](CCC(=O)O)C(=O)N[C@@H](CC(=O)c2ccccc2N)C(=O)O[C@@H]1C | MIC [4]: 64 µg/mL |
| 11 | CCCCCCCCCC(=O)N[C@@H](Cc1c[nH]c2ccccc12)C(=O)N[C@@H](CC(N)=O)C(=O)N[C@@H](CC(=O)O)C(=O)N[C@@H]1C(=O)NCC(=O)N[C@@H](CCCN)C(=O)N[C@@H](CC(=O)O)C(=O)N[C@H](C)C(=O)N[C@@H](CC(=O)O)C(=O)NCC(=O)N[C@H](CO)C(=O)N[C@H](CCC(=O)O)C(=O)N[C@@H](CC(=O)c2ccccc2N)C(=O)O[C@@H]1C |  |

Source: ChEMBL document CHEMBL4680276, “Structure-Activity Relationships of Daptomycin Lipopeptides” (2020)
